From PubChem BioAssay (NCI)
Where “and” joins values, the source holds several entries; their conditions need not be identical. Equal entries are not always repeated.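 The compound was tested at five concentrations on cells cultured in 96-well plates, with a 48-hour exposure period. GI50: concentration for 50% inhibition of growth. The concentration for full growth arrest is given as TGI.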

Legend:
Assay in all cases: DTP human tumour cell line panel, 48 h
A549 NSCLC = system: A549 NSCLC
NCI/ADR-RES ovarian = system: NCI/ADR-RES ovarian
OVCAR-8 ovarian = system: OVCAR-8 ovarian
UACC-257 melanoma = system: UACC-257 melanoma
ACHN renal = system: ACHN renal
TK-10 renal = system: TK-10 renal
DU-145 prostate = system: DU-145 prostate
HT29 colon = system: HT29 colon
MALME-3M melanoma = system: MALME-3M melanoma
KM12 colon = system: KM12 colon

Row | SMILES | GI50 (A549 NSCLC) | TGI (A549 NSCLC) | GI50 (NCI/ADR-RES ovarian) | TGI (NCI/ADR-RES ovarian) | GI50 (OVCAR-8 ovarian) | TGI (OVCAR-8 ovarian) | GI50 (UACC-257 melanoma) | TGI (UACC-257 melanoma) | GI50 (ACHN renal) | TGI (ACHN renal) | GI50 (TK-10 renal) [µM] | TGI (TK-10 renal) | GI50 (DU-145 prostate) | TGI (DU-145 prostate) | GI50 (HT29 colon) | TGI (HT29 colon) | GI50 (MALME-3M melanoma) | TGI (MALME-3M melanoma) | GI50 (KM12 colon) | TGI (KM12 colon)
1 | C[C@]12CCCN1CC1=NNC(=O)c3cc(F)cc4[nH]c2c1c34 | 22.4 µM | > 100 µM | 20 µM | 71.8 µM | 19.5 µM | > 100 µM | 25.1 µM | 73.6 µM | 21.1 µM | > 100 µM | 22.6 | > 100 µM | 32.6 µM | > 100 µM | 19.2 µM | > 100 µM | 28.9 µM | 70.5 µM | 9.6 µM | 30.3 µM
2 | CC1NC(C(=O)O)Cc2cc(O)c(O)cc21 (centres undefined) |  | > 100 µM |  | > 100 µM |  | > 100 µM |  | > 100 µM |  | > 100 µM |  | > 100 µM |  | > 100 µM |  | > 100 µM |  | > 100 µM |  | > 100 µM
3 | CC(=O)NC(CS)C(=O)O (centres undefined) | > 100 µM | > 100 µM and 69600 µM | > 100 µM | > 100 µM and 81500 µM | > 100 µM | > 100 µM and 88800 µM | > 100 µM | > 100 µM | > 100 µM | > 100 µM | > 100 | > 100 µM and 76500 µM | > 100 µM | > 100 µM | > 100 µM | > 100 µM and 86700 µM | > 100 µM | > 100 µM and 54500 µM | > 100 µM | > 100 µM and 98100 µM
4 | CCSc1nc(NC(C)c2ccccc2)c2cnn(CO)c2n1 (centres undefined) | > 100 µM | > 100 µM | 80.8 µM | > 100 µM | 99.3 µM | > 100 µM | 6.91 µM | > 100 µM | 76 µM | > 100 µM | 47.7 | > 100 µM | > 100 µM | > 100 µM | > 100 µM | > 100 µM | 29.6 µM | 84.9 µM | 42.1 µM | > 100 µM
5 | COc1ccc(CN2C(=O)/C(=C\C(=O)c3ccc(OCCN4CCCC4)cc3)c3ccccc32)cc1 | 13.2 µM | 36.2 µM | 5.71 µM | 47.7 µM | 2.66 µM | 5.78 µM | 20.2 µM | 40.3 µM | 1.66 µM | 3.02 µM | 1.74 | 3.33 µM | 2.32 µM | 5.65 µM |  |  | 1.75 µM | 3.35 µM | 11.1 µM | 34.7 µM
6 | COc1ccc(N=N/C(=N\NC(=O)c2cc(Br)ccc2O)c2ccc(N(CCC#N)CCC#N)cc2OC)cc1 | 77.1 µg/mL | > 150 µg/mL | 42 µg/mL | > 150 µg/mL | 47.5 µg/mL | > 150 µg/mL | > 150 µg/mL | > 150 µg/mL | 85.7 µg/mL | > 150 µg/mL |  |  | 82 µg/mL | > 150 µg/mL | 40.9 µg/mL | 118 µg/mL | 68.2 µg/mL | > 150 µg/mL | 44.6 µg/mL | 128 µg/mL
7 | Cc1cc(O[C@@H]2O[C@@H](C)[C@H](O)[C@@H](O)[C@H]2O)c2c3c(c(O[C@@H]4O[C@@H](C)[C@H](O)[C@@H](O)[C@H]4O)cc2c1)C(=O)c1c(O)cccc1C3=O | > 30 µM | > 30 µM | > 30 µM | > 30 µM | > 30 µM | > 30 µM | > 30 µM | > 30 µM | > 30 µM | > 30 µM |  |  | > 30 µM | > 30 µM | > 30 µM | > 30 µM | > 30 µM | > 30 µM | > 30 µM | > 30 µM
